Test results as given in PubChem BioAssay (NCI).
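The compound was tested at five concentrations on cells cultured in 96-well plates, with a 48-hour exposure period. GI50 is the concentration that inhibits growth by half. TGI: concentration producing complete growth inhibition.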

How the values were obtained:
Experiment in all cases: growth of human tumour cells (NCI), 48 h
[1] = test system: HOP-62 NSCLC
[2] = test system: SK-MEL-28 melanoma
[3] = test system: HCT-116 colon
[4] = test system: SN12C renal
[5] = test system: A549 NSCLC
[6] = test system: SR leukemia
[7] = test system: SK-OV-3 ovarian
[8] = test system: EKVX NSCLC
[9] = test system: SK-MEL-2 melanoma
[10] = test system: HCC-2998 colon

| Compound | GI50 [1] [µM] | TGI [1] [µM] | GI50 [2] [µM] | TGI [2] [µM] | GI50 [3] [µM] | TGI [3] [µM] | GI50 [4] [µM] | TGI [4] [µM] | GI50 [5] [µM] | TGI [5] [µM] | GI50 [6] [µM] | GI50 [7] [µM] | TGI [7] [µM] | GI50 [8] [µM] | TGI [8] [µM] | GI50 [9] [µM] | TGI [9] [µM] | GI50 [10] [µM] | TGI [10] [µM] | TGI [6] [µM] |
| --- | --- | --- | --- | --- | --- | --- | --- | --- | --- | --- | --- | --- | --- | --- | --- | --- | --- | --- | --- | --- |
| c1cnn2ncc(-c3ccnc(Nc4ccc5c(c4)OCCO5)n3)c2c1 | 0.0958 | > 25 | 0.0544 | 0.199 | 0.0533 | 1.04 | 0.0875 | > 25 | 0.0753 | 3.07 | 0.0466 | 0.178 | > 25 | 0.0997 | 1.13 | 0.0483 | 0.121 | 0.0911 | 0.514 |  |
| COc1ccc(-c2c(C3=NCCCN3)nnn2-c2ccc([N+](=O)[O-])cc2)cc1 |  | > 100 |  | > 100 |  | > 100 |  | > 100 |  | > 100 |  |  | > 100 |  | > 100 |  | > 100 |  | > 100 | > 100 |
| CC1OC(c2ccc3c(c2O)C(=O)C2=C(C3=O)C3(O)C(=O)CC(C)(O)CC3(O)C=C2)CC(O)C1O (stereo not given) |  | 60.7 |  | 29.4 |  | 17.5 |  | 28.2 |  | > 73.5 |  |  | > 100 |  | 33.9 |  | 42.4 |  | 31.7 | 33.5 |
| C=C1C2Oc3ccccc3C1N(c1ccccc1)O2 (stereo not given) |  | > 100 |  | > 100 |  | 54.2 |  | 88.1 |  | > 100 |  |  | > 100 |  | > 100 |  | > 100 |  | > 100 | > 100 |
| CCCCCCCCCCCCCCCCCCOCC(COCCOCC[N+]1(CCCCCC(=O)[O-])CCCC1)Oc1ncccn1 (stereo not given) |  | 5.24 |  | 22.2 |  | 15.8 |  | 16.7 |  | 20 |  |  | 6.62 |  | 31.3 |  | 20 |  | 17.4 | 37.1 |
| Cc1ccc(C)c(N2C(=O)C(=O)C(c3nc4ccccc4s3)C(=Nc3cccc4c(=O)[nH][nH]c(=O)c34)C2=O)c1 (stereo not given) |  | > 100 |  | > 100 |  | > 100 |  | > 100 |  | > 100 |  |  | > 100 |  | > 100 |  | > 100 |  | > 100 | > 100 |
| Cc1c(C)c(CC(=O)N2CC2)c(C)c(C)c1CC(=O)N1CC1 |  | 44.2 |  | 37.6 |  | 28.5 |  | > 56.7 |  | 50.3 |  |  | 99.5 |  | 65.8 |  | 32.6 |  | 25.2 | 4.79 |
| O=C(O)c1ccccc1C(=O)c1ccc2c(c1)Cc1ccccc1-2 |  | > 100 |  | > 100 |  | > 100 |  | > 100 |  | > 100 |  |  | > 100 |  | > 100 |  | > 100 |  | 88 | > 100 |
| CCCCCCCCCCCCCC[n+]1cccc(C(N)=O)c1 | 1.35 | 3.41 | 2.01 | 5.52 | 1.61 | 3.97 | 1.86 | 8.34 | 4.08 | 18.4 | 1.45 | 1.9 | 8.13 | 1.97 | 6.08 | 2.13 | 4.69 | 2.2 |  | 3.94 |
| COc1ccc(C2=C(N3CCc4ccccc43)C(=O)NC2=O)cc1 | > 25 | > 25 | > 25 | > 25 | > 25 | > 25 | > 25 | > 25 | > 25 | > 25 | 13.7 | > 25 | > 25 | > 24 | > 25 | > 25 | > 25 | > 25 | > 25 | > 25 |
| Clc1ccc2c(c1)N(c1ncnc3ccc(-c4cnc5[nH]ncc5c4)cc13)CC2 | 0.463 | > 100 | 0.77 | > 100 | 1.15 | > 100 | 0.407 | > 100 | 0.33 | > 100 | 0.722 |  |  | 0.338 | > 100 | 7 | > 100 | 1.07 | > 100 | > 100 |
| COc1ccc(C(=O)c2nc3ccccc3n2CC(=O)c2ccc(Cl)cc2)cc1 | 4.78 | > 100 | 3.02 | > 100 | 3.15 | > 100 | 9.72 | > 100 | 17.5 | > 100 | 0.569 | 10.4 | > 100 | 11.6 | > 100 | 12.6 | > 100 | 3.94 | > 100 |  |
| C/C1=C\CC[C@@](C)(O)[C@@H]2C[C@H](CC/C(C)=C/CC1)C1(CC1)C(=O)O2 | 45.1 | > 100 | 18 | 41.3 | 24.2 | 54.1 | 21.5 | 56.2 | 42.8 | > 100 | 28 | 39 | > 100 | 45.4 | > 100 | 41.2 | > 100 | 30.4 | 66.6 | 76.9 |
| O=c1[nH]c2cc([N+](=O)[O-])ccc2nc1/C(=N\Nc1ccccc1)C(O)c1ccc2c(c1)OCO2 (stereo not given) |  | > 100 |  | > 100 |  | > 100 |  | > 100 |  | > 100 |  |  | > 100 |  | > 100 |  | > 100 |  | > 100 | > 100 |
| COc1ccccc1NC(=O)/C(=C/c1ccccc1)C(C)=O |  | > 100 |  | > 100 |  | > 100 |  | > 100 |  | > 100 |  |  | > 100 |  | > 100 |  | > 100 |  | > 100 | > 100 |
| Cc1ccc(NC(=O)/C(Cc2cc(=O)oc3cc(O)ccc23)=N\NC(=O)C[N+](C)(C)C)cc1C |  | > 100 |  | > 100 |  | > 100 |  | > 100 |  | > 100 |  |  | > 100 |  | > 100 |  | > 100 |  | > 100 | > 100 |
| CC1(C)CC(=O)C(CC2C(=O)c3ccccc3C2=O)C(=O)C1 |  | > 100 |  | > 100 |  | > 100 |  | > 100 |  | > 100 |  |  | > 100 |  | > 100 |  | > 100 |  | > 100 | > 100 |
